Reference: patent US12059420B2 (BRISTOL-MYERS SQUIBB COMPANY, priority 2018, dated 2024)
Counter-ions that a name gives are not always drawn.

Biological target: T1, human IDO1 (Homo sapiens, UniProt P14902)
T1 construct: expressed in transfected cells
Test: IDO inhibition assay in HEK293 cells stably expressing human IDO1 (kynurenine production, Ehrlich reagent, absorbance 490 nm)
Type: cell-based
Details: 20 hours incubation with compound, 500 nM reference standard = 100% inhibition, read-out: IDO1 HEK Human IC50
Method: HEK293 cells were transfected with a pCDNA-based mammalian expression vector harboring human IDO1 cDNA (NM 002164.2) by electroporation. They were cultured in medium (DMEM with 10% FBS) containing 1 mg/ml G418 for two weeks. Clones of HEK293 cells that stably expressed human IDO1 protein were selected and expanded for IDO inhibition assay.
The human IDO1/HEK293 cells were seeded at 10,000 cells per 50 μL per well with RPMI/phenol red free media contains 10% FBS in a 384-well black wall clear bottom tissue culture plate (Matrix Technologies LLC) 100 nL of certain concentration of compound was then added to each well using ECHO liquid handling systems. The cells were incubated for 20 hours in 37° C. incubator with 5% CO2.
The compound treatments were stopped by adding trichloroacetic acid (Sigma-Aldrich) to a final concentration at 0.2%. The cell plate was further incubated at 50° C. for 30 minute. The equal volume supernatant (20 μL) and 0.2% (w/v) Ehrlich reagent (4-dimethylaminobenzaldehyde, Sigma-Aldrich) in glacial acetic acid were mixed in a new clear bottom 384-well plate. This plate was then incubated at RT for 30 minute. The absorbance at 490 nm was measured on Envision plate reader.
Compound IC50 values were calculated using the counts of 500 nM of a reference standard treatment as one hundred percent inhibition, and counts of no compound but DMSO treatment as zero percent inhibition.

T1 sequence (P14902 whole entry): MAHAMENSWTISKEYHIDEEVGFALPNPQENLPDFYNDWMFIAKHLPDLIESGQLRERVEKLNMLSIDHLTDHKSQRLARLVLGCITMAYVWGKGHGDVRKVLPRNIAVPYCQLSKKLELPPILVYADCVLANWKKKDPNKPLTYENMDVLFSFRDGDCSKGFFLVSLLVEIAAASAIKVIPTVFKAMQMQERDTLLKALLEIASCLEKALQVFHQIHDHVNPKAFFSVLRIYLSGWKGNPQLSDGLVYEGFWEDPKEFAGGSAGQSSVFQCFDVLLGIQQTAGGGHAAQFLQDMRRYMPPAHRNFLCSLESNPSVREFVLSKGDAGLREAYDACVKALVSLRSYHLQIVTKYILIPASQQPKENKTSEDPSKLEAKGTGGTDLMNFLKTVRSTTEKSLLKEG

Structure (SMILES)	IC50 [nM]
CCC(CC(=O)O)c1cc(Nc2ccc3nc(C)sc3c2)cc(N(Cc2ccc(F)cc2)CC(C)C)n1 (single isomer, unassigned) [Example 249, 3-(6-((4-fluorobenzyl)(isobutyl)amino)-4-((2-methylbenzo [d]thiazol-6-yl)amino)pyridin-2-yl)pentanoic acid]	934
COc1ccc(Nc2cc(-c3ccccc3-c3nnn[nH]3)nc(N(Cc3ccccc3)CC(C)C)c2)cc1C(N)=O [Example 198, 5-((2-(2-(1H-tetrazol-5-yl)phenyl)-6-(benzyl(isobutyl)amino)pyridin-4-yl)amino)-2-methoxybenzamide]	2960
CCCN(CC1CC1)c1nc(NC(=O)Nc2ccc(F)cc2)cc(-c2ccccc2-c2nnn[nH]2)n1 [Example 65, 1-(6-(2-(1H-tetrazol-5-yl)phenyl)-2-((cyclopropylmethyl)(propyl)amino)pyrimidin-4-yl)-3-(4-fluorophenyl)urea, TFA]	4530
Cc1ccc(CC(=O)Nc2cc(-c3ccccc3-c3nnn[nH]3)nc(N(CC(C)C)C3CCOCC3)c2)cc1 [Example 77, N-(2-(2-(1H-tetrazol-5-yl)phenyl)-6-(isobutyl(tetrahydro-2H-pyran-4-yl)amino)pyridin-4-yl)-2-(p-tolyl)acetamide, TFA]	2090
CCCN(Cc1ccccc1)c1cc(NC(=O)Cc2ccccc2OC)cc(-c2ccccc2-c2nn[nH]n2)n1 [Example 203, N-(2-(2-(2H-tetrazol-5-yl)phenyl)-6-(benzyl(propyl)amino)pyridin-4-yl)-2-(2-methoxyphenyl)acetamide]	305
CCCN(Cc1ccccc1)c1cc(NC(=O)Cc2ccc(C)cc2)cc(-c2ccccc2C(=O)NS(=O)(=O)N2CCN(C)CC2)n1 [Example 25, 2-(6-(benzyl(propyl)amino)-4-(2-(p-tolyl)acetamido)pyridin-2-yl)-N-((4-methylpiperazin-1-yl)sulfonyl)benzamide]	2910
Cc1ccc(Nc2cc(-c3ccccc3-c3nnn[nH]3)nc(N(Cc3ccccc3)CC(C)C)c2)nn1 [Example 157, 6-(2-(1H-tetrazol-5-yl)phenyl)-N2-benzyl-N2-isobutyl-N4-(6-methylpyridazin-3-yl)pyridine-2,4-diamine]	540
CC(C)c1ccc(CC(=O)Nc2cc(-c3ccccc3-c3nnn[nH]3)nc(N3CCc4ccccc4C3)n2)cc1 [Example 95, N-(6-(2-(1H-tetrazol-5-yl)phenyl)-2-(3,4-dihydroisoquinolin-2(1H)-yl)pyrimidin-4-yl)-2-(4-isopropylphenyl)acetamide]	1390
Cc1ccc(NC(=O)Nc2cc(-c3ccccc3-c3nnn[nH]3)nc(N3C[C@@H]4C[C@H]3CN4Cc3ccccc3)n2)cc1 [Example 98, 1-(6-(2-(1H-tetrazol-5-yl)phenyl)-2-((1 S,4S)-5-benzyl-2,5-diazabicyclo [2.2.1]heptan-2-yl)pyrimidin-4-yl)-3-(p-tolyl)urea]	846
CCOc1ccc(NC(=O)Nc2cc(-c3ccccc3-c3nnn[nH]3)nc(N(CC)Cc3ccccc3)c2)cc1 [Example 279]	537
Cc1cc(CC(=O)Nc2cc(-c3ccccc3-c3nnn[nH]3)nc(N(Cc3ccccc3)CC(C)C)c2)on1 [Example 231, N-(2-(2-(1H-tetrazol-5-yl)phenyl)-6-(benzyl(isobutyl)amino)pyridin-4-yl)-2-(3-methylisoxazol-5-yl)acetamide]	675
CCCN(Cc1ccccc1)c1cc(NC(=O)Cc2ccccc2)cc(-c2ccccc2-c2nn[nH]n2)n1 [Example 225, N-(2-(2-(2H-tetrazol-5-yl)phenyl)-6-(benzyl(propyl)amino)pyridin-4-yl)-2-phenylacetamide]	364
CCCN(Cc1ccccc1)c1cc(NC(=O)C(F)c2ccccc2)cc(-c2ccccc2-c2nn[nH]n2)n1 (centres unmarked) [Example 212, N-(2-(2-(2H-tetrazol-5-yl)phenyl)-6-(benzyl(propyl)amino)pyridin-4-yl)-2-fluoro-2-phenylacetamide]	224
CCN(Cc1ccccc1)c1cc(NC(=O)Cc2cc(C)no2)cc(-c2ccccc2-c2nnn[nH]2)n1 [Example 283]	1150
CCCN(CC1CC1)c1cc(NC(=O)Nc2ccc(Cl)cc2Cl)cc(-c2ccccc2-c2nnn[nH]2)n1 [Example 83, 1-(2-(2-(1H-tetrazol-5-yl)phenyl)-6-((cyclopropylmethyl)(propyl)amino)pyridin-4-yl)-3-(2,4-dichlorophenyl)urea, TFA]	158
CCCN(Cc1ccccc1)c1cc(NC(=O)Nc2ccc(C)cc2)cc(-c2ccccc2S(N)(=O)=O)n1 [Example 27, 2-(6-(benzyl (propyl)amino)-4-(3-(p-tolyl)ureido)pyridin-2-yl) benzene sulfonamide]	607
CCCN(Cc1ccccc1)c1cc(Nc2ccn(C)n2)cc(-c2ccccc2-c2nnn[nH]2)n1 [Example 61, 6-(2-(1H-tetrazol-5-yl)phenyl)-N2-benzyl-N4-(1-methyl-1H-pyrazol-3-yl)-N2-propylpyridine-2,4-diamine]	446
CCCN(Cc1ccccc1)c1cc(NC(=O)Cc2cncc(Br)c2)cc(-c2ccccc2-c2nn[nH]n2)n1 [Example 199, N-(2-(2-(2H-tetrazol-5-yl)phenyl)-6-(benzyl(propyl)amino)-yl)-2-(5-bromopyridin-3-yl)acetamide]	239
CCCN(CC1CC1)c1nc(NC(=O)Cc2ccc(C)cc2)cc(-c2ccccc2-c2nnn[nH]2)n1 [Example 64, N-(6-(2-(1H-tetrazol-5-yl)phenyl)-2-((cyclopropylmethyl)(propyl)amino)pyrimidin-4-yl)-2-(p-tolyl)acetamide, TFA]	161
CCCN(Cc1ccccc1)c1cc(NC(=O)C2(c3cccc(F)c3)CC2)cc(-c2ccccc2-c2nn[nH]n2)n1 [Example 224, N-(2-(2-(2H-tetrazol-5-yl)phenyl)-6-(benzyl(propyl)amino)pyridin-4-yl)-1-(3-fluorophenyl)cyclopropanecarboxamide]	3000
CCN(Cc1ccccc1)c1cc(NC(=O)Nc2ccc(OC(F)(F)F)cc2)cc(-c2ccccc2-c2nnn[nH]2)n1 [Example 277]	782

Stronger by IC50, values ahead:

IC50 [nM]	Structure (SMILES)
73.6	Cc1ccnc(Nc2cc(-c3ccccc3-c3nnn[nH]3)nc(N(Cc3ccccc3)CC(C)C)c2)n1 [Example 145, 6-(2-(1H-tetrazol-5-yl)phenyl)-N2-benzyl-N2-isobutyl-N4-(4-methylpyrimidin-2-yl)pyridine-2,4-diamine]
8.6	CC(C)CN(Cc1ccccc1)c1cc(Nc2ccc(F)cc2F)cc(-c2ccccc2-c2nnn[nH]2)n1 [Example 56, 6-(2-(1H-tetrazol-5-yl)phenyl)-N2-benzyl-N4-(2,4-difluorophenyl)-N2-isobutylpyridine-2,4-diamine]
8.5	COc1cc(Nc2cc(-c3ccccc3-c3nnn[nH]3)nc(N(Cc3ccccc3)CC(C)C)c2)ccc1F [Example 190, 6-(2-(1H-tetrazol-5-yl)phenyl)-N2-benzyl-N4-(4-fluoro-3-methoxyphenyl)-N2-isobutylpyridine-2,4-diamine]
12	CC(C)CN(Cc1ccccc1)c1cc(Nc2ccc3c(c2)OCO3)cc(-c2ccccc2-c2nnn[nH]2)n1 [Example 138, 6-(2-(1H-tetrazol-5-yl)phenyl)-N4-(benzo[d][1,3]dioxol-5-yl)-N2-benzyl-N2-isobutylpyridine-2,4-diamine]
89	CCN(Cc1ccccc1)c1nc(NC(=O)Cc2ccc(C)cc2)cc(-c2ccccc2-c2nnn[nH]2)n1 [Example 7, N-(6-(2-(1H-tetrazol-5-yl)phenyl)-2-(benzyl(ethyl)amino)pyrimidin-4-yl)-2-(p-tolyl)acetamide]
56.8	CCCN(Cc1ccccc1)c1cc(Nc2nc3ccc(F)cc3s2)cc(-c2ccccc2-c2nnn[nH]2)n1 [Example 62, 6-(2-(1H-tetrazol-5-yl)phenyl)-N2-benzyl-N4-(6-fluorobenzo[d]thiazol-2-yl)-N2-propylpyridine-2,4-diamine]
34.2	CCCN(Cc1ccccc1)c1cc(NC(=O)Cc2ccc3ccccc3c2)cc(-c2ccccc2-c2nn[nH]n2)n1 [Example 201, N-(2-(2-(2H-tetrazol-5-yl)phenyl)-6-(benzyl(propyl)amino)pyridin-4-yl)-2-(naphthalen-2-yl)acetamide]
2.4	CC(C)CN(Cc1ccc(F)cc1)c1cc(Nc2ccc(F)cc2)cc(-c2ccccc2-c2nnn[nH]2)n1 [Example 39, 6-(2-(1H-tetrazol-5-yl)phenyl)-N2-(4-fluorobenzyl)-N4-(4-fluorophenyl)-N2-isobutylpyridine-2,4-diamine]
9.9	CCCN(Cc1ccccc1)c1cc(NC(=O)Nc2ccc(C)cc2)cc(-c2ccccc2-c2nnn[nH]2)n1 [Example 260, 1-(2-(2-(1H-tetrazol-5-yl)phenyl)-6-(benzyl(propyl)amino)pyridin-4-yl)-3-(p-tolyl)urea]
7.9	CC(C)CN(Cc1ccccc1)c1cc(Nc2cnc(Cl)nc2)cc(-c2ccccc2-c2nnn[nH]2)n1 [Example 164, 6-(2-(1H-tetrazol-5-yl)phenyl)-N2-benzyl-N4-(2-chloropyrimidin-5-yl)-N2-isobutylpyridine-2,4-diamine]
120	CC(C)CN(Cc1ccc(F)cc1)c1cc(Nc2ccn3nccc3n2)cc(-c2ccccc2-c2nnn[nH]2)n1 [Example 42, 6-(2-(1H-tetrazol-5-yl)phenyl)-N2-(4-fluorobenzyl)-N2-isobutyl-N4-(pyrazolo[1,5-a]pyrimidin-5-yl)pyridine-2,4-diamine, TFA]
